Assay results from article PMC8584424, “Synthesis of Novel 2-Thiouracil-5-Sulfonamide Derivatives as Potent Inducers of Cell Cycle Arrest and CDK2A Inhibition Supported by Molecular Docking” (International Journal of Molecular Sciences, 2021).

What was measured:
[1] = tested on: HT-29 (colon) cancer cells; assay: In vitro cytotoxicity assessment (MTT), HT-29; format: cell-based, human; settings: for IC50: Homo sapiens, HT-29, 48 h, MTT, mean of three experiments ± SD, NA: not active; for SI (selectivity index) HT-29: IC50 in WI38 normal cells / IC50 in HT-29
From the text: (§1) Four cancer cell lines were used in this study viz ovarian (A-2780), colon (HT-29), breast (MCF-7), and liver (HepG2) cancer cells. They were provided by the National Institute of Cancer, Cairo University (Cairo, Egypt). The selection of those cancer cells was encouraged by the stated anticancer activity of a number 5-Fluorouracil hybrids against the mentioned cancer cells and based on the reported cytotoxic activity of a large range of bioactive cores containing sulfonamide moiety.
(§2) Cells were seeded in 96 well plates at a density of 2 × 10^4 and incubated to allow the attachment for 24 h. Then the cells were treated at different concentrations (2.5–10 μM) with 5-FU as a positive control or the synthesized compounds for 48h. 0.1% DMSO was used as a negative control. Afterward, cells were washed using PBS and the viability of cells was evaluated utilizing in vitro toxicology assay kit, MTT Based (Stock No. TOX-1, Sigma-Aldrich, Saint Louis, Missouri, USA), per the manufacturer’s instructions. The plates were read at 570 nm. IC50 was calculated using a sigmoidal dose-response curve (GraphPad Prism version 5 for Windows (GraphPad Inc., USA)). Data are presented as the mean of the three individual experiments. The degree of selectivity of the active target compounds relative to WI38 normal cell lines is expressed as previously described. Selectivity index (SI) = IC50 of a pure compound in a normal cell line/IC50 of the same pure compound in a cancerous cell line.

[2] = tested on: MCF-7 (breast) cancer cells; assay: In vitro cytotoxicity assessment (MTT), MCF-7; format: cell-based, human; settings: for IC50: Homo sapiens, MCF7, 48 h, MTT, mean of three experiments ± SD, NA: not active; for SI (selectivity index) MCF-7: IC50 in WI38 normal cells / IC50 in MCF-7
From the text: as §1, §2

[3] = tested on: A-2780, HT-29, MCF-7, and HepG2 cancer cell lines; assay: Cytotoxic screening, statements for the whole panel of four cancer cell lines; format: cell-based, human; settings: A-2780, HT-29, MCF-7, HepG2
From the text: as §1, §2

[4] = tested on: HepG2 (liver) cancer cells; assay: In vitro cytotoxicity assessment (MTT), HepG2; format: cell-based, human; settings: for IC50: Homo sapiens, HepG2, 48 h, MTT, mean of three experiments ± SD, NA: not active; for SI (selectivity index) HepG2: IC50 in WI38 normal cells / IC50 in HepG2
From the text: as §1, §2

[5] = tested on: A-2780 (ovarian) cancer cells; assay: In vitro cytotoxicity assessment (MTT), A-2780; format: cell-based, human; settings: for IC50: Homo sapiens, A2780, 48 h, MTT, mean of three experiments ± SD, NA: not active; for SI (selectivity index) A-2780: IC50 in WI38 normal cells / IC50 in A-2780
From the text: as §1, §2

CDK2/CyclinA2 = molecular target: T1, CDK2/CyclinA2 (Homo sapiens, UniProt P24941); assay: In vitro inhibitory screening of CDK2 (CDK2 Assay kit, Kinase-Glo MAX); format: biochemical; settings: CDK2/CyclinA2, 30 °C 45 min; mean of three experiments ± SD; read-out: CDK2 Protein Kinase (IC50 in µM)
T1 construct: purchased #79599
Experimental: To measure CDK2/CyclinA2 activity, the CDK2 Assay kit #79599 was used for screening and profiling applications, together with Kinase-Glo® MAX (Promega#V6071) as a detection reagent. […] Briefly, 25 μL of the master mixture containing 6 μL Kinase assay buffer + 1 μL ATP + 5 μL CDK substrate peptide + 13 μL distilled water were added to each well. Later, 5 µL of inhibitor buffer only or diluted compound were added to the blank or test inhibitor wells, respectively. Then, 20μL of Kinase assay buffer was added to blank wells. The reaction was started by the addition of 20 μL of CDK2/CyclinA2 enzyme to the wells of the test inhibitor. The final volume was 50 µL in all of the reactions. Incubation was at 30 °C for 45 min for all the enzymatic reactions. Finally, to each well, 50 μL of Kinase-Glo MAX reagent was added. The plate was incubated for 15 min at room temperature then, the luminescence signal was measured using a Bio Tek Synergy 2 microplate reader. Experiments were performed in triplicates.

WI38 normal cells = assay: In vitro cytotoxicity assessment (MTT), normal cells; format: cell-based; settings: WI-38; normal human cell line WI38, MTT
Experimental: as §2, with “Then the cells were treated at different concentrations (2.5–10 μM) with 5-FU as a positive control or the synthesized compounds for 48h.” left out

Row | Compound | IC50 [1] | IC50 [2] | melting point | anticancer activity against the four cancer cell lines, in words [3] | IC50 [4] | IC50 [5] | IC50 (CDK2/CyclinA2) | IC50 (WI38 normal cells) | SI (selectivity index) HepG2 [4] | SI (selectivity index) HT-29 [1] | SI (selectivity index) MCF-7 [2] | SI (selectivity index) A-2780 [5]
1 | Cc1[nH]c(=S)[nH]c(=O)c1S(=O)(=O)C1C(=O)NC(=O)NC1=O [Compound 3, 5-[(6-Methyl-4-Oxo-2-Thioxo-1,2,3,4-Tetrahydropyrimidin-5-Yl)sulfonyl]pyrimidine-2,4,6(1H,3H,5H)-Trione] | 13 ± 2 µM | 14.9 ± 2.89 µM | 344 to 346 °C | low or no anticancer activity | – | – | – | – | – | – | – | –
2 | Cc1[nH]c(=S)[nH]c(=O)c1S(=O)(=O)NNc1ccccc1 [Compound 8b, 6-Methyl-4-Oxo-N′-Phenyl-2-Thioxo-1,2,3,4-Tetrahydropyrimidine-5-Sulfonohydrazide] | 8.16 ± 2.07 µM | 9.89 ± 1.8 µM | – | – | 13.1 ± 2.04 µM | 16.4 ± 1.55 µM | – | – | – | – | – | –
3 | Cc1[nH]c(=S)[nH]c(=O)c1S(=O)(=O)Nc1ccc([N+](=O)[O-])cc1 [Compound 6f, 6-Methyl-N-(4-Nitrophenyl)-4-Oxo-2-Thioxo-1,2,3,4-Tetrahydropyrimidine-5-Sulfonamide] | 6.4 ± 1.24 µM | 2.34 ± 0.61 µM | – | – | 6.1 ± 0.48 µM | 10.2 ± 0.97 µM | 0.605 ± 0.023 µM | 65.7 ± 2.28 µM | – | – | – | –
4 | Cc1[nH]c(=S)[nH]c(=O)c1S(=O)(=O)Nc1ccccc1 [Compound 6a, 6-Methyl-4-Oxo-N-Phenyl-2-Thioxo-1,2,3,4-Tetrahydropyrimidine-5-Sulfonamide] | 11.3 ± 2.08 µM | 16.8 ± 2.11 µM | 316 to 318 °C | – | 15.6 ± 1.52 µM | 17.7 ± 2.18 µM | – | – | – | – | – | –
5 | Cc1[nH]c(=S)[nH]c(=O)c1S(=O)(=O)NNC(=O)c1ccccc1Cl [Compound 9b, N′-(2-Chlorobenzoyl)-6-Methyl-4-Oxo-2-Thioxo-1,2,3,4-Tetrahydropyrimidine-5-Sulfono-Hydrazide] | 10.6 ± 1.25 µM | 13.6 ± 2.65 µM | 334 to 336 °C | – | 13.3 ± 1.5 µM | 7.95 ± 1.75 µM | – | – | – | – | – | –
6 | Cc1[nH]c(=S)[nH]c(=O)c1S(=O)(=O)Nc1cccc(C(=O)C=Cc2ccc([N+](=O)[O-])cc2)c1 [Compound 7b, 6-Methyl-N-(3-(3-(4-Nitrophenyl)acryloyl)phenyl)-4-Oxo-2-Thioxo-1,2,3,4-Tetrahydropyrimidine-5-Sulfonamide] | 2.84 ± 0.78 µM | 6.11 ± 0.5 µM | 318 to 320 °C | – | 12.4 ± 1.82 µM | 11.1 ± 1.41 µM | 0.81 ± 0.026 µM | 79.9 ± 2.56 µM | 6.43 | 28.14 | 13.08 | 7.22
7 | Cc1[nH]c(=S)[nH]c(=O)c1S(=O)(=O)Nc1cccc(C(=O)C=Cc2ccc(Cl)cc2)c1 [Compound 7a, N-(3-(3-(4-Chlorophenyl)acryloyl)phenyl)-6-Methyl-4-Oxo-2-Thioxo-1,2,3,4-Tetrahydro Pyrimidine-5-Sulfonamide] | 4.2 ± 0.88 µM | 6.9 ± 1.33 µM | 315 to 317 °C | – | 10.9 ± 1.72 µM | 12.5 ± 2.1 µM | 6.41 ± 0.377 µM | 83.1 ± 2 µM | 7.61 | 19.78 | 12.04 | 6.66
8 | Cc1[nH]c(=S)[nH]c(=O)c1S(=O)(=O)NNc1ccc([N+](=O)[O-])cc1[N+](=O)[O-] [Compound 8c, N′-(2,4-Dinitrophenyl)-6-Methyl-4-Oxo-2-Thioxo-1,2,3,4-Tetrahydropyrimidine-5-Sulfono Hydrazide] | 10.1 ± 1.54 µM | 5.54 ± 1.58 µM | 321 to 323 °C | – | 14.8 ± 1.45 µM | 8.57 ± 1.79 µM | – | – | – | – | – | –
9 | CC(=O)c1cccc(NS(=O)(=O)c2c(C)[nH]c(=S)[nH]c2=O)c1 [Compound 6d, N-(3-Acetylphenyl)-6-Methyl-4-Oxo-2-Thioxo-1,2,3,4-Tetrahydropyrimidine-5-Sulfonamide] | 6.13 ± 0.53 µM | 2.3 ± 0.62 µM | 318 to 320 °C | – | 5.24 ± 1.05 µM | 11.7 ± 1.99 µM | 0.567 ± 0.021 µM | 74.4 ± 4.74 µM | – | 12.13 | 32.33 | 6.37
10 | Cc1[nH]c(=S)[nH]c(=O)c1S(=O)(=O)Nc1cccc(C(=O)C=Cc2ccc(Br)cc2)c1 [Compound 7c, N-(3-(3-(4-Bromophenyl)acryloyl)phenyl)-6-Methyl-4-Oxo-2-Thioxo-1,2,3,4-Tetrahydro Pyrimidine-5-Sulfonamide] | 8.14 ± 1.95 µM | 11.7 ± 2.07 µM | 335 to 337 °C | – | 8.25 ± 0.68 µM | 6.1 ± 0.54 µM | 8.2 ± 0.486 µM | 62.7 ± 1.93 µM | 7.60 | 7.71 | 5.38 | 10.28
11 | O=c1[nH]cc(F)c(=O)[nH]1 [Compound 5-FU, 5-fluorouracil, reference compound] | 4.69 ± 1.13 µM | 5.15 ± 1.14 µM | – | – | 38.4 ± 2.4 µM | 3.92 ± 1 µM | – | – | – | – | – | –
12 | COc1ccc(NS(=O)(=O)c2c(C)[nH]c(=S)[nH]c2=O)cc1 [Compound 6b, N-(4-Methoxyphenyl)-6-Methyl-4-Oxo-2-Thioxo-1,2,3,4-Tetrahydropyrimidine-5-Sulfon-Amide] | 5.1 ± 1.32 µM | 2.29 ± 0.63 µM | 320 to 322 °C | – | 2.23 ± 0.55 µM | 2.56 ± 0.45 µM | 0.447 ± 0.031 µM | 71.7 ± 2 µM | 32.13 | 14.05 | 31.29 | 28.00
13 | Cc1[nH]c(=S)[nH]c(=O)c1S(=O)(=O)NNC(=O)c1ccc(Cl)cc1 [Compound 9a, N′-(4-Chlorobenzoyl)-6-Methyl-4-Oxo-2-Thioxo-1,2,3,4-Tetrahydropyrimidine-5-Sulfono-Hydrazide] | 6.64 ± 1.19 µM | 10.8 ± 1.53 µM | 327 to 329 °C | – | 11 ± 1.23 µM | 11.9 ± 3.47 µM | – | – | – | – | – | –
14 | Cc1ccc(NS(=O)(=O)c2c(C)[nH]c(=S)[nH]c2=O)cc1 [Compound 6c, 6-Methyl-4-Oxo-2-Thioxo-N-(P-Tolyl)-1,2,3,4-Tetrahydropyrimidine-5-Sulfonamide] | 5.46 ± 1.66 µM | 6.36 ± 1.2 µM | 313 to 315 °C | – | 6.71 ± 0.99 µM | 14 ± 1.05 µM | – | 84.4 ± 1.7 µM | 12.58 | 15.46 | 13.27 | 6.02
15 | Cc1[nH]c(=S)[nH]c(=O)c1S(=O)(=O)NNC(=O)c1ccc(Br)cc1 [Compound 9c, N′-(4-Bromobenzoyl)-6-Methyl-4-Oxo-2-Thioxo-1,2,3,4-Tetrahydropyrimidine-5-Sulfono-Hydrazide] | 6.99 ± 1.35 µM | 11.9 ± 2 µM | 339 to 341 °C | – | 9.44 ± 1.03 µM | 8.16 ± 2.07 µM | – | – | – | – | – | –
16 | Cc1[nH]c(=S)[nH]c(=O)c1S(=O)(=O)NNC(N)=S [Compound 8a, [(6-Methyl-4-Oxo-2-Thioxo-1,2,3,4-Tetrahydropyrimidin-5-Yl) Sulfonylamino] Thiourea] | 8.02 ± 1.99 µM | 13.3 ± 3 µM | 343 to 345 °C | – | 18 ± 1.95 µM | 16.8 ± 1.82 µM | – | – | – | – | – | –
17 | Cc1[nH]c(=S)[nH]c(=O)c1S(=O)(=O)Nc1ccc(Br)cc1 [Compound 6g, N-(4-Bromophenyl)-6-Methyl-4-Oxo-2-Thioxo-1,2,3,4-Tetrahydropyrimidine-5-Sulfonamide] | 5.05 ± 0.83 µM | 7.31 ± 1.21 µM | 333 to 335 °C | – | 2.47 ± 0.51 µM | 1.62 ± 0.35 µM | 0.485 ± 0.033 µM | 70.6 ± 2.14 µM | – | 13.98 | 9.65 | 43.58
